# Reference: patent publication US20210338615A1, “Inhibition of Acetyl-CoA Metabolism for Treatment and Prevention of Immune System Diseases and Disorders” (Memorial Sloan Kettering Cancer Center, priority 2016, published 2021)
# What was measured:
# [1] = tested on: CD4+ T cells differentiated under Th1 conditions; assay: IFN-γ expression in CD4+ T cells differentiated under Th1 conditions (intracellular staining, flow cytometry); type: cell-based, mouse; details: for IFN-γ expression in KO T cells: LDHA-deficient (KO) Th1 cells, 20 mM sodium acetate or 30 nM TSA for another 24 h, PMA and ionomycin 4 h; for IFN-γ expression: WT naïve CD4+ T cells under Th1 conditions, inhibitor added for another 24 h, re-stimulated with PMA and ionomycin 4 h
# Experimental: Panels D and E show naïve WT or KO CD4^+ T cells differentiated under Th1 conditions for 3 days, and either left untreated or supplemented with 20 mM sodium acetate for another 24 h.
# (§1) IFN-γ expression was determined by intracellular staining. […] Cell viability was determined by LIVE/DEAD staining. […] Data represent mean±SD, n=3. […] Data represent mean±SD, n=3. Two-tailed unpaired t-test, **P≤0.01. […] Data represent mean±SD, n=4.
# Naïve CD4^+ T cells isolated from wild-type mice were differentiated under Th1 conditions for 3 days. DMSO or indicated concentration of Fx11 was added to the cell culture for another 24 h, with or without 20 mM sodium acetate. […] IFN-γ expression was determined by intracellular staining. Representative plots (panel A) and quantification (panel B) are shown.
# (§2) Cells from thymi, spleens, and lymph nodes were depleted of erythrocytes by hypotonic lysis. Cells were incubated with specific antibodies for 15 min on ice in the presence of anti-FcγR to block FcγR binding. Dead cells were excluded by DAPI (Invitrogen) staining. To determine cytokine expression, cells were stimulated with 50 ng/mL phorbol 12-myristate 13-acetate (Sigma) and 1 μM ionomycin (Sigma) in the presence of GolgiStop (BD Biosciences) for 4 h. After stimulation, cells were stained with cell-surface marker antibodies and LIVE/DEAD Fixable dye (Invitrogen) to exclude dead cells, fixed, and permeabilized with a transcription factor staining kit (eBioscience), followed by staining with cytokine antibodies. All samples were acquired with an LSR II flow cytometer (Becton, Dickinson) and analyzed with FlowJo software (TreeStar).
# CD62L^+CD44^−CD25^−CD4^+ T cells were isolated from spleen and peripheral lymph nodes of wild-type (WT) or CD4^CreLdha^fl/fl (KO) mice with naïve CD4^+ T cells isolation kits (Miltenyi or Stem Cell). Purity was checked by flow cytometry, and was over 98%. For in vitro T cell activation, 0.2-0.5×10^6 naïve CD4^+ T cells were cultured on a 24-well plate pre-coated with 5 μg/mL anti-CD3 in T cell medium [RPMI/1640, 10% fetal bovine serum, 2 mM glutamine, 1 mM sodium pyruvate, 1× non-essential amino acid (Invitrogen), 10 mM HEPES, 55 μM 2-mercaptoethanol, 100 U/ml penicillin, […]] supplemented with 2 μg/mL anti-CD28 and 100 U/ml IL-2. For T helper 1 (Th1) cell differentiation, T cells were cultured with the addition of 10 μg/mL anti-IL-4 and 10 ng/mL IL-12. For T helper 17 (Th17) cell differentiation, T cells were cultured with the addition of 10 μg/mL anti-IL-4, 10 μg/mL anti-IFN-γ, 10 μg/mL anti-IL-2, 2 ng/ml TGF-β, 10 ng/ml IL-6, 10 ng/ml IL-23, and 10 ng/mL […]. For cell proliferation experiments, naïve CD4^+ T cells were labeled with CFSE (Invitrogen), and activated on a 24-well plate, pre-coated with 5 μg/mL anti-CD3, in T cell culture medium supplemented with 2 μg/mL anti-CD28 and 100 U/mL IL-2. CFSE dilution was assessed by flow cytometry on days 1, 2, and 3 post-activation. For sodium acetate and TSA treatment experiment, cells were differentiated under Th1 conditions for 3 days, and cultured in T cell medium supplemented with 100 U/mL IL-2, 10 μg/mL anti-IL-4, 10 ng/mL IL-12, and the indicated concentrations of sodium acetate (Sigma), TSA (Promega), or […] for 24 h. For ATP citrate lyase (ACL) inhibitor experiments, naïve CD4^+ T cells isolated from WT mice were cultured under Th1 conditions for 2 days or under Th17 conditions for 3 days. […]
# [2] = tested on: CD4+ T cells differentiated under Th1 conditions; assay: T-bet expression in Th1 cells by flow cytometry; type: cell-based, mouse; details: WT or KO Th1 cells, 20 mM sodium acetate or 30 nM TSA for another 24 h
# Experimental: as §1, §2
# CD62L^+CD44^−CD25^−CD4^+ T cells were isolated from spleen and peripheral lymph nodes of wild-type (WT) or CD4^CreLdha^fl/fl (KO) mice with naïve CD4^+ T cells isolation kits (Miltenyi or Stem Cell). […] CFSE dilution was assessed by flow cytometry on days 1, 2, and 3 post-activation. […]
# H3K9Ac at the Ifng locus = assay: H3K9Ac at the Ifng promoter and CNS22 enhancer regions by ChIP-qPCR; type: cell-based, mouse; details: KO Th1 cells, 20 mM sodium acetate or 30 nM TSA for 24 h; normalized to Cd3e promoter
# Experimental: Enrichment was normalized to H3K9Ac at the Cd3e promoter region. […] Cells were subsequently re-stimulated with phorbol myristate acetate (PMA) and ionomycin for 4 h.
# In panels A-D, naïve CD4^+ T cells isolated from wild-type (WT) mice were differentiated under Th1 conditions for 2 days. […] Subsequently, cells were re-stimulated with phorbol myristate acetate (PMA) and ionomycin for 4 h. IFN-γ expression was determined by intracellular staining. […] Cell viability was determined by LIVE/DEAD staining. […] Data represent mean±SD, n=3. Two-tailed unpaired t-test, *P≤0.05; **P≤0.01; ns, not significant. […] Acetyl-CoA levels were measured by an acetyl-CoA assay kit. Data represent mean±SD, n=3. Two-tailed unpaired t-test, **P≤0.01. […] The expression of T-bet was determined by flow cytometry. Panels G and H show naïve CD4^+ T cells isolated from WT or KO mice, differentiated under Th1 conditions for 3 days. […] The expression of IFN-γ (panel G) and T-bet (panel H) were determined by flow cytometry. […]
# Chromatin immunoprecipitations were performed with SimpleChIP Enzymatic Chromatin IP Kit (Cell Signaling) according to manufacturer's instructions. […] The relative abundance of precipitated DNA fragments was analyzed by qPCR using Power SYBR Green PCR Master Mix (Qiagen) and the enrichments were normalized to Cd3e promoter.
# [3] = tested on: CD4CreLdhafl/fl (KO) CD4+ T cells differentiated under Th1 conditions; details: 20 mM sodium acetate for 24 h
# Experimental: In panels A-D, naïve CD4^+ T cells isolated from wild-type (WT) mice were differentiated under Th1 conditions for 2 days. DMSO or the ATP citrate lyase inhibitor (ACLi) BMS-303141 was added to the culture for another 24 h. Subsequently, cells were re-stimulated with phorbol myristate acetate (PMA) and ionomycin for 4 h. IFN-γ expression was determined by intracellular staining. […] Cell viability was determined by LIVE/DEAD staining. […] Data represent mean±SD, n=3. Two-tailed unpaired t-test, *P≤0.05; **P≤0.01; ns, not significant. […] Acetyl-CoA levels were measured by an acetyl-CoA assay kit. Data represent mean±SD, n=3. Two-tailed unpaired t-test, **P≤0.01. […] The expression of T-bet was determined by flow cytometry. Panels G and H show naïve CD4^+ T cells isolated from WT or KO mice, differentiated under Th1 conditions for 3 days. […] The expression of IFN-γ (panel G) and T-bet (panel H) were determined by flow cytometry. […]
# For measurement of cytosolic acetyl-CoA, naïve CD4^+ T cells were differentiated under Th1 conditions for 2 days and then cultured in fresh T cell medium for another 24 h. […] Freshly isolated naïve WT and KO CD4^+ T cells were rested in T cell medium with 10 ng/mL IL-7 for 4 h at 37° C. in the incubator, and the level of acetyl-CoA was measured.
# [4] = tested on: CD4+ T cells differentiated under Th17 conditions; assay: IL-17a expression in CD4+ T cells differentiated under Th17 conditions (flow cytometry); type: cell-based, mouse
# Experimental: Naïve WT or LDHA-deficient (KO) CD4^+ T cells were differentiated under Th17 conditions for 4 days. Increasing doses of GNE-140 were also included in the WT T cell culture. Cell viability was determined by a live/dead cell dye, and the percentage of live cell population is shown. In addition, cells were re-stimulated with PMA/ionomycin for 4 h. IL-17a and Foxp3 protein expression was examined by flow cytometry, and used as readouts for Th17 and Treg cell differentiation, respectively.
# In panels A-C, naïve WT or LDHA-deficient (KO) CD4^+ T cells were differentiated under Th17 conditions for 3 days. Cells were re-stimulated with PMA/ionomycin for 4 h. […] Data represent mean±SD, n=2. Two-tailed unpaired t-test, **P≤0.01. […] In panels D-F, WT or KO mice were subjected to EAE induction by immunization with MOG peptide with CFA. […] Panel F is quantification of panel E; data represent mean±SD, n=4. […]
# Naïve CD4 T cells (2.5×10^4) were isolated from spleen and peripheral lymph nodes of Ldha^fl/fl (WT) and CD4^CreLdha^fl/fl (KO) mice. […] Cytokines and transcription factors were analyzed by flow cytometry.
# Cells from thymi, spleens, and lymph nodes were depleted of erythrocytes by hypotonic lysis. […] All samples were acquired with an LSR II flow cytometer (Becton, Dickinson) and analyzed with FlowJo software (TreeStar). […]
# [5] = tested on: experimental autoimmune encephalomyelitis (EAE); assay: Experimental autoimmune encephalomyelitis (EAE), mouse model of multiple sclerosis; type: in vivo; details: WT mice, MOG peptide with CFA; 35 mg/kg/day intraperitoneally daily from day 7
# Experimental: In panels A-C, naïve WT or LDHA-deficient (KO) CD4^+ T cells were differentiated under Th17 conditions for 3 days. Cells were re-stimulated with PMA/ionomycin for 4 h. […] Data represent mean±SD, n=2. Two-tailed unpaired t-test, **P≤0.01. […] In panels D-F, WT or KO mice were subjected to EAE induction by immunization with MOG peptide with CFA. Clinical scoring in panel D: 0, no overt signs of disease; 1, limp tail; 2, partial hind-limb paralysis; 3, total hind-limb paralysis; 4, hind-limb paralysis and 75% body paralysis; 5, complete body paralysis, or moribund state, or death by EAE, or sacrifice for humane reasons. […] IL-17a and IFN-γ protein expression were examined by flow cytometry. Panel F is quantification of panel E; data represent mean±SD, n=4. Two-tailed unpaired t-test, ***P≤0.001. […] Naïve WT or KO CD4^+ T cells were differentiated under Th17 conditions for 3 days, and BMS 303141 was included in the culture for another 24 hours. Cells were re-stimulated with PMA/ionomycin for 4 h. IL-17a protein expression was examined by flow cytometry. […] WT mice were subjected to EAE induction by immunization with MOG peptide with CFA. BMS 303141 (35 mg/kg/day) was intraperitoneally injected daily, starting from day 7. Clinical scoring was the same as in panel D.
Compound,IFN-γ expression in KO T cells [1],T-bet expression [2],H3K9Ac in the Ifng locus (H3K9Ac at the Ifng locus),IFN-γ expression [1],other results
"CC(=O)[O-].[Na+] [Acetate, sodium acetate]",corrected IFN-γ expression in KO T cells,without affecting T-bet expression,normalization of H3K9Ac in Ifng promoter and enhancer regions,–,acetyl-CoA production [3]: augmented acetyl-CoA production
"COc1ccc(-c2ccccc2)cc1NS(=O)(=O)c1cc(Cl)cc(Cl)c1O [BMS 303141, 3,5-dichloro-2-hydroxy-N-(4-methoxy[1,1′-biphenyl]-3-yl)-benzenesulfonamide]",–,–,–,suppresses IFN-γ expression,"IL-17a production ([4]; Th17 conditions for 3 days, BMS 303141 in the culture for another 24 hours, PMA/ionomycin 4 h): repressed IL-17a production; protection from EAE (clinical scoring) [5]: completely protected mice from EAE"
CCCc1c(O)c(O)c(C(=O)O)c2cc(Cc3ccccc3)c(C)cc12 [FX11],–,–,–,dose-dependently inhibited IFN-γ expression,"inhibitory effect on IFN-γ expression when supplementing cells with acetate ([1]; WT Th1 cells, FX11 for 24 h with 20 mM sodium acetate): fully nullified"
"O=C1N[C@](c2ccc(N3CCOCC3)cc2)(c2ccsc2)CC(O)=C1Sc1ccccc1Cl [GNE-140, (2R)-5-(2-chlorophenyl)sulfanyl-4-hydroxy-2-(4-morpholin-4-ylphenyl)-2-thiophen-3-yl-1,3-dihydropyridin-6-one]",–,–,–,–,"IL-17A expression ([4]; WT T cells under Th17 conditions with APCs, 0.3, 10 or 30 μM GNE-140, harvested day 4, PMA/ionomycin 4 h): inhibited IL-17A expression in WT T cells in a dose-dependent manner"
CC(/C=C/C(=O)NO)=C\[C@@H](C)C(=O)c1ccc(N(C)C)cc1 [TSA],rectified IFN-γ expression in KO T cells,without affecting T-bet expression,increased H3K9Ac in the Ifng locus,–,–
